Measurements: patent US20070232601A1, “Vla-4 Inhibitor” (priority 2004, published 2007)

Molecular target: T1, hα4 and β1 integrins (VLA-4) (Homo sapiens, UniProt P05556+P13612)
T1 construct: expressed in transfected cells; host or cells: CHO cells
Assay: In vitro evaluation: inhibition of binding of CHO cells expressing hα4 and β1 integrins to Eu3+-hVCAM-1 D1D7-IgG
Settings: ligand Eu3+-hVCAM-1 D1D7-IgG 2 nM, Ki calculated from IC50
Description: CHO cells which were forced to be expressed by transduction of hα4 and β1 integrins are seeded (3×10^4 cells/100 μl/well) on a Costar 3599 plate, and cultured for 2 days. A medium is washed with a buffer A* two times, and Eu^3+-hVCAM-1 D1D7-IgG which was diluted with an assay buffer A** to 2 nM is added at 50 μl/well. A test substance which was diluted with 2% DMSO-assay buffer (in the presence or the absence of 6% human serum albumin) is added at 50 μl/well (A solution which was separately diluted is added to a well in which Scatchard analysis is performed), this is stirred with a plate mixer for 5 minutes, and allowed to stand at room temperature for 1 hour. Thereafter, this is washed with a buffer A four times, a potentiating reagent (manufactured by DELFIA) is added at 100 μl/well, this is shaken for 5 minutes using a plate mixer, and a fluorescence intensity is measured with a time-resolved fluorometer (DELFIA Wallac). IC50 (concentration at which binding of CHO cell and Eu^3+-hVCAM-1 D1D7-IgG is inhibited by 50%) of a test substance is obtained from an integration rate obtained from a calculation equation: [(FT−FNS)−(FI−FNS)]/[(FT−FNS)]×100, wherein FT indicates a fluorescence intensity of a well not containing a test substance, FNS indicates a fluorescence intensity of a well not containing a test substance and hVCAM-1 D1D7-IgG, and FI indicates a fluorescence intensity containing a test substance. A Kd value showing strength of binding and Bmax (maximum binding amount) were presumed in a range of 0.06 to 20 nM according to the Scachard analysis method. [formula]
A Ki value was calculated according to the above equation ([L] is ligand concentration)
[* buffer A: 25 mM HEPES (pH 7.5), 150 mM NaCl, 1 mM Ca^2+, 1 mM Mg^2+, 4 mM Mn^2+; ** assay buffer: 25 mM HEPES (pH 7.5), 150 mM NaCl, 1 mM Ca^2+, 1 mM Mg^2+, 4 mM Mn^2+, 0.1% BSA, 20 μM DTPA, with/without 6% ALBUMIN, HUMAN SERUM (C/NA-1653, SIGMA)]

T1 sequence (P13612 34-1032): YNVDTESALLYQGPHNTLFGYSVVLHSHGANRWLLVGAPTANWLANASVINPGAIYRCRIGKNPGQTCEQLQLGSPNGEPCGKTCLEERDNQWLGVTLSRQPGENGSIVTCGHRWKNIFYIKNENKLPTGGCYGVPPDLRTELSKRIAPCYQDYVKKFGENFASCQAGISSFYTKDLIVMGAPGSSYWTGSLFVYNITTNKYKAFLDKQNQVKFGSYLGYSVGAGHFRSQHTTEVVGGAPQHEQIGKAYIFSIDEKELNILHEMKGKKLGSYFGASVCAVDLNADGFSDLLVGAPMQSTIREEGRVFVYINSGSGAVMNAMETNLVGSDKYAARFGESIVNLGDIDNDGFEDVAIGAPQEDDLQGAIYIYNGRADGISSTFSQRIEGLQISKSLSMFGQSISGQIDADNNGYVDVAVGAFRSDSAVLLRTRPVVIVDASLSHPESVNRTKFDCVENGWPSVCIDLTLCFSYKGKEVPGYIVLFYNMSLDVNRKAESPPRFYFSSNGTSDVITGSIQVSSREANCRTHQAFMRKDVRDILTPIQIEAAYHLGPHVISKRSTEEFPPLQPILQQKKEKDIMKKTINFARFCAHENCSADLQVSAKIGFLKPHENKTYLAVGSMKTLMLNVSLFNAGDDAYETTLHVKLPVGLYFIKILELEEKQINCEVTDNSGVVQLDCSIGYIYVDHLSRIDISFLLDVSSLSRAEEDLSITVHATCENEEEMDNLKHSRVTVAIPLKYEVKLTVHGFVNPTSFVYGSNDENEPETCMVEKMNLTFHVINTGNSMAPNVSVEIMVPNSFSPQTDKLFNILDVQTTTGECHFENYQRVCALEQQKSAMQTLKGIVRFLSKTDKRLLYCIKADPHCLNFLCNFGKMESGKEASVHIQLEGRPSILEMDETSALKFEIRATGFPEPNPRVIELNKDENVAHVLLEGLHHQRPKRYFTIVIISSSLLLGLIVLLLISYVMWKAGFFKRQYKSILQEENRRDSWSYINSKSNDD
T1 sequence (P05556 21-798): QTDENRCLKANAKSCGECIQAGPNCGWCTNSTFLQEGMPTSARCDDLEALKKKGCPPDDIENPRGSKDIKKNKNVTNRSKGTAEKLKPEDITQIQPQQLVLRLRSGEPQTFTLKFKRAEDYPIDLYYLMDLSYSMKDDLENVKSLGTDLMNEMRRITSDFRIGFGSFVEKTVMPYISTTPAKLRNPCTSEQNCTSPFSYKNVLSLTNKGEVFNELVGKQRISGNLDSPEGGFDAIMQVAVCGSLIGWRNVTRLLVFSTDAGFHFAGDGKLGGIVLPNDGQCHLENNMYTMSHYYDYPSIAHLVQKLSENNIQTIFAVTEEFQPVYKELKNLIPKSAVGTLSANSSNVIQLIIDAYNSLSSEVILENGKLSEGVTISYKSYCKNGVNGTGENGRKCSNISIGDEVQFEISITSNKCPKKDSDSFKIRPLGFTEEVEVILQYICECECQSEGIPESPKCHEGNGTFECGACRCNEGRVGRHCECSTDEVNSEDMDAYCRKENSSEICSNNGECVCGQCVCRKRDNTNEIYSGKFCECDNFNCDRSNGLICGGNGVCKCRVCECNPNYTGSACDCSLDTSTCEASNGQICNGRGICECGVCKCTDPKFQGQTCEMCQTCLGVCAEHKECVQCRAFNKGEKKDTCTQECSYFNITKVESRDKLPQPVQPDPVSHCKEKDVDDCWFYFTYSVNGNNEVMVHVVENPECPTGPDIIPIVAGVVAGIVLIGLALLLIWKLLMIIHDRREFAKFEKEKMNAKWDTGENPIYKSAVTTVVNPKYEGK

Ki	Compound
5300 pM	3-[2-[1-[4-(3-Benzo[b]thiophenylcarbonyl)amino-5-chloro-2-fluorophenyl]acetyl]-(3S)-ethoxy-(2S)-pyrrolidinyl]-5-oxazolyl]propionic acid methyl ester [Example 99]
1500 pM	COc1cc(CC(=O)N[C@@H](CC(C)C)c2cc(CCC(=O)O)on2)ccc1NC(=O)Nc1ccccc1C [CP664511]
580 pM	CO[C@H]1C[C@@H](c2ncc(CCC(=O)O)s2)N(C(=O)Cc2cc(Cl)c(NC(=O)c3csc4ccccc34)cc2Cl)C1 [Example 3, 3-[2-[1-[[4-[(3-Benzo[b]thienylcarbonyl)amino]-2,5-dichlorophenyl]acetyl]-(4S)-methoxy-(2S)-pyrrolidinyl]-5-thiazolyl]propionic acid]
600 pM	CO[C@H]1C[C@@H](c2ncc(CCC(=O)O)s2)N(C(=O)Cc2cc(Cl)c(NC(=O)c3coc4ccccc34)cc2Cl)C1 [Example 5, 3-[2-[1-[4-[(1-Benzofuran-3-ylcarbonyl)amino]-2,5-dichlorophenylacetyl]-(4S)-methoxy-(2S)-pyrrolidinyl]-5-thiazolyl]propionic acid]
400 pM	CO[C@H]1C[C@@H](c2ncc(CCC(=O)O)s2)N(C(=O)Cc2cc(Cl)c(NC(=O)c3coc4ccccc34)cc2F)C1 [Example 6, 3-[2-[1-[4-[(1-Benzofuran-3-ylcarbonyl)amino]-5-chloro-2-fluorophenylacetyl]-(4S)-methoxy-(2S)-pyrrolidinyl]-5-thiazolyl]propionic acid]
970 pM	CO[C@H]1C[C@@H](c2ncc(CCC(=O)O)s2)N(C(=O)Cc2cc(Cl)c(NC(=O)c3nn(C)c4ccccc34)cc2F)C1 [Example 7, 3-[2-[1-[5-Chloro-2-fluoro-4-(1-methyl-3-indazolylcarbonyl)aminophenylacetyl]-(4S)-methoxy-(2S)-pyrrolidinyl]-5-thiazolyl]propionic acid]
340 pM	CO[C@H]1C[C@@H](c2ncc(CCC(=O)O)s2)N(C(=O)Cc2ccc3nc(Nc4cc(F)ccc4C)oc3c2F)C1 [Example 8]
960 pM	COc1ccc(F)cc1Nc1nc2ccc(CC(=O)N3C[C@@H](OC)C[C@H]3c3ncc(CCC(=O)O)s3)c(F)c2o1 [Example 9, 3-[2-[1-[[7-Fluoro-2-(5-fluoro-2-methoxyphenylamino)-1,3-benzoxazol-6-yl]acetyl]-(4S)-methoxy-(2S)-pyrrolidinyl]-5-thiazolyl]propionic acid]
500 pM	CO[C@H]1C[C@@H](c2ncc(CCC(=O)O)s2)N(C(=O)Cc2ccc3nc(-c4cn(C)c5ccccc45)oc3c2F)C1 [Example 11, 3-[2-[1-[7-Fluoro-2-(1-methylindol-3-yl)-1,3-benzoxazol-6-ylacetyl]-(4S)-methoxy-(2S)-pyrrolidinyl]-5-thiazolyl]propionic acid]
18000 pM	CO[C@H]1C[C@@H](c2ncc(CCC(=O)O)o2)N(C(=O)Cc2cc(Cl)c(NC(=O)c3cn(C)c4ccccc34)cc2Cl)C1 [Example 12, 3-[2-[1-[2,5-Dichloro-4-(1-methyl-3-indolylcarbonylamino)phenylacetyl]-(4S)-methoxy-(2S)-pyrrolidinyl]-5-oxazolyl]propionic acid]
17000 pM	CO[C@H]1C[C@@H](c2ncc(CCC(=O)O)o2)N(C(=O)Cc2cc(Cl)c(NC(=O)c3cn(C)c4ccccc34)cc2F)C1 [Example 13, 3-[2-[1-[5-Chloro-2-fluoro-4-(1-methyl-3-indolylcarbonyl)aminophenylacetyl]-(4S)-methoxy-(2S)-pyrrolidinyl]-5-oxazolyl]propionic acid]
4000 pM	CO[C@H]1C[C@@H](c2ncc(CCC(=O)O)o2)N(C(=O)Cc2cc(Cl)c(NC(=O)c3csc4ccccc34)cc2Cl)C1 [Example 14, 3-[2-[1-[[4-[(3-Benzo[b]thienylcarbonyl)amino]-2,5-dichlorophenyl]acetyl]-(4S)-methoxy-(2S)-pyrrolidinyl]-5-oxazolyl]propionic acid]
4500 pM	CO[C@H]1C[C@@H](c2ncc(CCC(=O)O)o2)N(C(=O)Cc2cc(Cl)c(NC(=O)c3csc4ccccc34)cc2F)C1 [Example 15, 3-[2-[1-[[4-[(3-Benzo[b]thienylcarbonyl)amino]-5-chloro-2-fluorophenyl]acetyl]-(4S)-methoxy-(2S)-pyrrolidinyl]-5-oxazolyl]propionic acid]
22000 pM	COc1ccc(F)cc1Nc1nc2ccc(CC(=O)N3C[C@@H](OC)C[C@H]3c3ncc(CCC(=O)O)o3)c(F)c2o1 [Example 16, 3-[2-[1-[[7-Fluoro-2-(5-fluoro-2-methoxyphenylamino)-1,3-benzoxazol-6-yl]acetyl]-(4S)-methoxy-(2S)-pyrrolidinyl]-5-oxazolyl]propionic acid]
15000 pM	COc1ccccc1Nc1nc2ccc(CC(=O)N3C[C@@H](OC)C[C@H]3c3ncc(CCC(=O)O)o3)c(F)c2o1 [Example 17, 3-[2-[1-[[7-Fluoro-2-(2-methoxyphenylamino)-1,3-benzoxazol-6-yl]acetyl]-(4S)-methoxy-(2S)-pyrrolidinyl]-5-oxazolyl]propionic acid]
1100 pM	Cn1cc(C(=O)Nc2cc(Cl)c(CC(=O)N3C[C@@H](F)C[C@H]3c3ncc(CCC(=O)O)s3)cc2Cl)c2ccccc21 [Example 18, 3-[2-[1-[2,5-Dichloro-4-(1-methyl-3-indolylcarbonylamino)phenylacetyl]-(4S)-fluoro-(2S)-pyrrolidinyl]-5-thiazolyl]propionic acid]
940 pM	Cn1cc(C(=O)Nc2cc(F)c(CC(=O)N3C[C@@H](F)C[C@H]3c3ncc(CCC(=O)O)s3)cc2Cl)c2ccccc21 [Example 19, 3-[2-[1-[5-Chloro-2-fluoro-4-(1-methyl-3-indolylcarbonyl)aminophenylacetyl]-(4S)-fluoro-(2S)-pyrrolidinyl]-5-thiazolyl]propionic acid]
690 pM	O=C(O)CCc1cnc([C@@H]2C[C@H](F)CN2C(=O)Cc2cc(Cl)c(NC(=O)c3csc4ccccc34)cc2Cl)s1 [Example 20, 3-[2-[1-[[4-[(3-Benzo[b]thienylcarbonyl)amino]-2,5-dichlorophenyl]acetyl]-(4S)-fluoro-(2S)-pyrrolidinyl]-5-thiazolyl]propionic acid]
610 pM	O=C(O)CCc1cnc([C@@H]2C[C@H](F)CN2C(=O)Cc2cc(Cl)c(NC(=O)c3csc4ccccc34)cc2F)s1 [Example 21, 3-[2-[1-[[4-[(3-Benzo[b]thienylcarbonyl)amino]-5-chloro-2-fluorophenyl]acetyl]-(4S)-fluoro-(2S)-pyrrolidinyl]-5-thiazolyl]propionic acid]
230 pM	O=C(O)CCc1cnc([C@@H]2C[C@H](F)CN2C(=O)Cc2cc(Cl)c(NC(=O)c3coc4ccccc34)cc2F)s1 [Example 22, 3-[2-[1-[[4-[(1-Benzofuran-3-ylcarbonyl)amino]-5-chloro-2-fluorophenyl]acetyl]-(4S)-fluoro-(2S)-pyrrolidinyl]-5-thiazolyl]propionic acid]
350 pM	COc1ccccc1Nc1nc2ccc(CC(=O)N3C[C@@H](F)C[C@H]3c3ncc(CCC(=O)O)s3)c(F)c2o1 [Example 23, 3-[2-[1-[[7-Fluoro-2-(2-methoxyphenylamino)-1,3-benzoxazol-6-yl]acetyl]-(4S)-fluoro-(2S)-pyrrolidinyl]-5-thiazolyl]propionic acid]
